This is an account of results in patent publication US7326721B2 (Hypnion, Inc., priority 2003, dated 2008).

The target in series [1] is T1, CYP 2C9 (Homo sapiens, UniProt P11712).
T1 construct: in a commercially available human microsomal preparation; purchased; host or cells: human microsomal preparation
In words: Cytochrome P450 inhibition: CYP 2C9. As to conditions: human microsomal preparation. Type of series: in vitro ADME. The protocol: Cytochrome P450 inhibition was studied with HY2901 in vitro. […] In addition, the in vitro rate of metabolism in rat, dog, monkey, and human hepatocyte cultures was determined for HY2901.

Series [2] relates to Crl: CD(SD)IGS BR rats. In words: Acute rat study (toxicity and MTD, oral gavage, 5 days). Type of series: in vivo. The protocol:
The purpose of this study was to evaluate the toxicity and maximum tolerated dose (MTD) of the test articles when given via oral gavage to rats. Male Crl: CD®(SD)IGS BR rats (3/group) were assigned to 5 groups. At initiation of dosing, animals were approximately 7 weeks old with body weights ranging from 172 to 206 g. Each group received either 50, 100, 150, 200, or 250 mg/kg of HY2901 once daily for 5 days. All surviving animals were sacrificed on Day 6. Assessment of toxicity was based on mortality, clinical observations, and body weight data.

A short description of series [3]: Plasma pharmacokinetics in dogs. Type of series: in vivo. To be noted: dog, 3 mg/kg. An excerpt:
The following pharmacokinetic parameters are computed from the individual plasma concentrations of the modified antihistamine compound using a noncompartmental approach and appropriate validated pharmacokinetic software (e.g., WinNonlin Professional). Concentration values reported as BLQ are set to zero. If concentration data are available, interim calculations are done (non-QC.d data) between periods if possible.
Dose proportionality following study medication is explored by analyzing natural log-transformed pharmacokinetic variables AUC(0-t), AUC(0-inf), and Cmax with a linear model including the natural log-transformed dose as covariates. […] The following parameters were estimated: • Cmax Maximum plasma concentration. • Tmax Time to maximum concentration. • Cmax and Tmax were reported directly from the concentration-time data. • AUC0-T Area under the plasma concentration-time curve from time […] to the last time point with measurable concentrations, estimated bylinear trapezoidal rule. • AUC0-00 Area under the plasma concentration-time curve extrapolated to infinity, calculated using the formula: AUC0-00=AUC0-1+C0/λ0 • Where Ct is the last measurable concentration in plasma and λz is the terminal phase elimination rate constant estimated using log-linear regression during the terminal elimination phase. […]

Series [4] deals with Beagles. In words: Acute dog study (toxicity and MTD, escalating oral doses). Type of series: in vivo.
Test in series [5]: as above
Type of series: in vivo. As to conditions: male, Beagle, in vivo; dog, oral gavage.

The test system of series [6] is Estrogen. In words: Table 12 panel: Estrogen. Type of series: binding. As to conditions: 1.0E−6, average N=2. From the text:
(§1) The percentage inhibition (average; N=2) for these receptors is shown below in Table 12.
(§2) Values in Table 12 are expressed as percentage inhibition of specific binding, and these values represent the average of replicate tubes at each of the concentrations tested.

Series [7] deals with Cholecystokinin, CCK1 (CCKA) (Homo sapiens, UniProt P32238). In words: Table 12 panel: CCK1. To be noted: 1.0E−6, average N=2, read-out: percentage inhibition of specific binding.
Description: as §1, §2

Series [8] addresses Calcium Channel, Type N (Homo sapiens, UniProt Q00975). In words: Table 12 panel: Calcium Channel, Type N. As to conditions: 1.0E−6, average N=2, read-out: percentage inhibition of specific binding.
Description: as §1, §2

Series [9] has as its system T2, Adrenergic, Alpha 2, Non-selective.
T2 construct: other: Adrenergic, Alpha 2; 1.0E−6; average N=2
In words: Table 12 panel: Adrenergic, Alpha 2. Type of series: binding. As to conditions: Adrenergic, Alpha 2; 1.0E−6; average N=2.

Series [10] has as its system Glutamic Acid Decarboxylase. In words: Table 12 panel: Glutamic Acid Decarboxylase. Type of series: biochemical. As to conditions: 1.0E−6, average N=2.
Description: as §1, §2

In series [11] the target is Neurokinin, NK2 (NKA) (hr) (Homo sapiens, UniProt P21452). In words: Table 12 panel: NK2. As to conditions: 1.0E−6, average N=2, read-out: percentage inhibition of specific binding.
Description: as §1, §2

Series [12] addresses Thyrotropin Releasing Hormone, TRH (Homo sapiens, UniProt P34981). In words: Table 12 panel: TRH. To be noted: 1.0E−6, average N=2, read-out: percentage inhibition of specific binding.
Description: as §1, §2

Series [13] deals with Corticotropin Releasing Factor, Non-selective. In words: Table 12 panel: CRF. It is filed as binding. As to conditions: 1.0E−6, average N=2.
Description: as §1, §2

The subject of series [14] is GABA A, Agonist Site. In words: Table 12 panel: GABA A, Agonist Site. Type of series: binding. As to conditions: 1.0E−6, average N=2.
Description: as §1, §2

The target of series [15] is GABA-B (Homo sapiens, UniProt Q9UBS5). In words: Table 12 panel: GABA-B. To be noted: 1.0E−6, average N=2, read-out: percentage inhibition of specific binding.
Description: as §1, §2

For series [16], the target named is Glutamate, NMDA, Glycine (Stry-insens Site) (Homo sapiens, UniProt Q05586). In words: Table 12 panel: Glutamate, NMDA, Glycine. As to conditions: 1.0E−6, average N=2, read-out: percentage inhibition of specific binding.
Description: as §1, §2

The mark [17] stands for this setting: 50 to 250 mg/kg once daily for 5 days.

In general, half-life refers to how long it takes for the measured level to halve. High values mean slow loss, low ones fast loss. Broadly, the Tmax is the time from dosing to the highest level. One may read the inhibition as the change of the read-out against control, counted positive when it falls.

Molecules are shown by their SMILES.

Chain of Neurokinin, NK2 (NKA) (hr) (P21452 whole entry): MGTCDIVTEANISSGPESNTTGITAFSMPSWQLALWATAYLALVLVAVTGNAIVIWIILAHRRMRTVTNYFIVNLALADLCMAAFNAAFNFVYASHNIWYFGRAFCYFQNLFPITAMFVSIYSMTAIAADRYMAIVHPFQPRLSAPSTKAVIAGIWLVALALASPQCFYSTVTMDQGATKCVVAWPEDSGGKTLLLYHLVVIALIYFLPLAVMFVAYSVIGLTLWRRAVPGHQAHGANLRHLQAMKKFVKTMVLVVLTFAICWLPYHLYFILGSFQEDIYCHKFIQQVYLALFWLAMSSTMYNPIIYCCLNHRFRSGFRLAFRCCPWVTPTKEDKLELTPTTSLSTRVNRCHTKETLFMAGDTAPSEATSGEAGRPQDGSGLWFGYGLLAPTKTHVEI
Chain of Thyrotropin Releasing Hormone, TRH (P34981 whole entry): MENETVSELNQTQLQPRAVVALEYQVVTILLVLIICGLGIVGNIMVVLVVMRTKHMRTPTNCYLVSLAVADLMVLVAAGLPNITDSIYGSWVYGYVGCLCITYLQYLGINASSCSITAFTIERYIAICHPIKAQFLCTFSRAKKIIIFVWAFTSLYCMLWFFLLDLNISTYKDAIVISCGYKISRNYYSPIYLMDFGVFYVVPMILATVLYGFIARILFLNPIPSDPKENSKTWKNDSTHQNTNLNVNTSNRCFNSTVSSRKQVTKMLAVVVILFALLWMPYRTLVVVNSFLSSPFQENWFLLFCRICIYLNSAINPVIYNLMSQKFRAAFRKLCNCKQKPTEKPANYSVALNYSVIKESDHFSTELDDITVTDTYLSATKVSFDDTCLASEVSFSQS
Chain of GABA-B (Q9UBS5 15-961 limits assumed): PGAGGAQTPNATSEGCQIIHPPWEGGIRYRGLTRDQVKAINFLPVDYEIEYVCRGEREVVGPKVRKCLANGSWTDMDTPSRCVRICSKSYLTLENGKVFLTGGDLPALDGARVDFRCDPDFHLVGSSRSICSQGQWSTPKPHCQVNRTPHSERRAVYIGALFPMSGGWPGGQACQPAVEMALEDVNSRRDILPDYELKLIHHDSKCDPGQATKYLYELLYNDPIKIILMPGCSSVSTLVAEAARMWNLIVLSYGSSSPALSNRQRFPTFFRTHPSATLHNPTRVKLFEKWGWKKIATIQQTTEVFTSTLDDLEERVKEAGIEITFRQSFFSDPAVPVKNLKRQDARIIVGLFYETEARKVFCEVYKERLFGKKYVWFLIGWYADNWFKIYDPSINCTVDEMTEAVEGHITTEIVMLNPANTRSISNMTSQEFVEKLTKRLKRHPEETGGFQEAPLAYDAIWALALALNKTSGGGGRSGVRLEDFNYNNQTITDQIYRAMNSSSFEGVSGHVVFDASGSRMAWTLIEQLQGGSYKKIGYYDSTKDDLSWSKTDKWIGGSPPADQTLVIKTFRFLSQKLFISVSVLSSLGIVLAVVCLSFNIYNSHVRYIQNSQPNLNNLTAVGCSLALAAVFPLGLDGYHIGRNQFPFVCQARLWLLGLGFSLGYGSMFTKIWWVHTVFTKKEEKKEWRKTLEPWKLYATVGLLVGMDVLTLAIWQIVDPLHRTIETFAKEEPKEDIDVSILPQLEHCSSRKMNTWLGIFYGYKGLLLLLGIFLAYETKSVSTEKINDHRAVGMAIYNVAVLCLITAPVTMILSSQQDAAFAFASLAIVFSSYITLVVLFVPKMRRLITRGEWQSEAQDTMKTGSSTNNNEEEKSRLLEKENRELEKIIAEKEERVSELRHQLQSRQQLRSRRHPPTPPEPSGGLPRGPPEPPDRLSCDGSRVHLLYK
Chain of GABA-B (O75899 42-941 partner): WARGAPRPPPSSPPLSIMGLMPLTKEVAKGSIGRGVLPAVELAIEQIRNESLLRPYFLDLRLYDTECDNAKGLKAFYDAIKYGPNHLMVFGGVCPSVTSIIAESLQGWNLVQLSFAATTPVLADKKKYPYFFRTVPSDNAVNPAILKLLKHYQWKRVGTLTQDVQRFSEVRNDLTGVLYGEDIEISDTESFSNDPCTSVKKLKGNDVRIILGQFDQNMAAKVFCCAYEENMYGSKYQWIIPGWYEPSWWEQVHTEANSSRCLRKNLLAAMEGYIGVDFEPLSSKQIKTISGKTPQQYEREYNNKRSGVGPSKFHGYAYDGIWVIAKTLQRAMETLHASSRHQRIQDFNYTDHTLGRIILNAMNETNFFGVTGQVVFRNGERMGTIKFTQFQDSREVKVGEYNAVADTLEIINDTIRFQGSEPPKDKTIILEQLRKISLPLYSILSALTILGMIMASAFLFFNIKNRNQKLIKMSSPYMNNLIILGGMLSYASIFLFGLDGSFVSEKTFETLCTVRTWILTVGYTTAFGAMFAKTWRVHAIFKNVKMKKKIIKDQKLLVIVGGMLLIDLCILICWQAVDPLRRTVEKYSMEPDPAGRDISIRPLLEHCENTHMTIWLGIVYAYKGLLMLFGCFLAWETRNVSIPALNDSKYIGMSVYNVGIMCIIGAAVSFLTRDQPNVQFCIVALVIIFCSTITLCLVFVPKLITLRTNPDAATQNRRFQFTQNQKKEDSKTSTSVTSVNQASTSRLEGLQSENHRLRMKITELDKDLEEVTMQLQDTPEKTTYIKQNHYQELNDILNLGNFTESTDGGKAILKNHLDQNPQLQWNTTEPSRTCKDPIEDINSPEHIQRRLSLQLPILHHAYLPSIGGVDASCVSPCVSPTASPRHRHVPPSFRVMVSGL
Chain of Cholecystokinin, CCK1 (CCKA) (P32238 whole entry): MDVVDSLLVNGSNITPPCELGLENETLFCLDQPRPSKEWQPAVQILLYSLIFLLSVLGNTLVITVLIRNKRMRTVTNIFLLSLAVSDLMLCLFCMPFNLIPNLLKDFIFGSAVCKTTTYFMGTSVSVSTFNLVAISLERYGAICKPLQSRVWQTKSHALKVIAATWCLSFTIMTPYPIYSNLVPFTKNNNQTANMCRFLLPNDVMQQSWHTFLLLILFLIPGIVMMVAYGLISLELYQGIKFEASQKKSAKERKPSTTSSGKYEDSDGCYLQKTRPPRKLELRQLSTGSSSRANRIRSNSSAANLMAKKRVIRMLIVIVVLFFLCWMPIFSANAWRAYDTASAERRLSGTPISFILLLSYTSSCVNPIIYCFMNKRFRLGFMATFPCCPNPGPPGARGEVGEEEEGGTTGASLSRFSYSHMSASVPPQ
T1 sequence (P11712 whole entry): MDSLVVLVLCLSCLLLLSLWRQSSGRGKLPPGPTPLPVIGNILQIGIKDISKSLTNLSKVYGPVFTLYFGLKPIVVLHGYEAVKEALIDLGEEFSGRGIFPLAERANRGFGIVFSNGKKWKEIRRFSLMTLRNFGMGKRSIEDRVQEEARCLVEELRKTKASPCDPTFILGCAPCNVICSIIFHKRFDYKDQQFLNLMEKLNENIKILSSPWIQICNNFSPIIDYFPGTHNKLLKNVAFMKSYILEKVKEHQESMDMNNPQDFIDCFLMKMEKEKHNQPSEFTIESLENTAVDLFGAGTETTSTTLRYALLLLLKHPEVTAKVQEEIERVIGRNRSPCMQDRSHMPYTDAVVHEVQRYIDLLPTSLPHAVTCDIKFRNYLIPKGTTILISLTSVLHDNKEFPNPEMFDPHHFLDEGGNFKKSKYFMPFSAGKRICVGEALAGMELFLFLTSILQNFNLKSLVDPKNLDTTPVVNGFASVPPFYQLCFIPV

Take `CC(C)(CN1CCC(=C2c3ccc(F)cc3COc3ccccc32)CC1)C(=O)O` [Compound 49a]: the “inhibition of CYP 2C9 activity” value in [1] is listed as “did not inhibit”. Also, in series [2] (setting [17]), the ataxia entry was “dose-response relationship was observed in the incidence and duration of ataxia”. Further, the “hypoactivity / apparent sleep” value in series [2] (setting [17]) is on record as “Hypoactivity was observed in all rats”. In series [2] (two 250 mg/kg rats, relative to other rats), the “Day 6 body weights” value is listed as “slightly decreased”. The half-life in series [3] was 4.2 h. In addition, the Tmax in [3] (after oral administration) was 0.5 h. Besides, the “clinical signs of toxicity” value was “No clinical signs of toxicity” in series [4] (25 mg/kg oral gavage); “body tremors, mild to moderate ataxia, excessive salivation and hypoactivity” in series [4] (40 mg/kg on Day 5); “Body tremors, mild to severe ataxia, and hypoactivity” in series [4] (50 mg/kg oral gavage); “Tremors (entire body, hind limbs, and/or head), mild to moderate ataxia, hypoactivity” in series [4] (75 mg/kg oral gavage). Moreover, the blood pressure result in [4] (40 mg/kg) is reported as “No significant changes”. For the same molecule, in series [4] (40 mg/kg), the heart rates entry is listed as “unaffected”. Also, in series [4] (escalating doses 25-75 mg/kg, 40 mg/kg Day 5), the body weight entry is “minimal effect on body weight”. In [5], the MTD at 5 days is 75 mg/kg.

Consider `CC(CC(=O)O)N1CCC(=C2c3ccc(F)cc3COc3ccccc32)CC1` (stereo not shown) [Compound 37], for which the “percentage inhibition of specific binding” value in series [6] was −4.68%; in series [9], −3.79%; in series [13] it was 4.31%; in series [14] it was 20.18%. The inhibition at 1 µM in [7] is 8.92%; in [8], 3.45%; in [11] it was -4.17%; in [12], -2.98%; in [15], 2.17%; in series [16], -12.5%. The percentage inhibition in series [10] was −4.76%.
